From BindingDB's records for doi:10.1021/jm0701019 (Abbott Laboratories, 2007) come the findings set out here.

The target in one test is T1, RAC-alpha serine/threonine-protein kinase [139-480,S378A,S381A,T450D,S473D] (Homo sapiens, UniProt P31749, S378A/S381A/S473D/T450D).
T1 construct: 139-480
T1 sequence (P31749 139-480 S378A/S381A/T450D/S473D): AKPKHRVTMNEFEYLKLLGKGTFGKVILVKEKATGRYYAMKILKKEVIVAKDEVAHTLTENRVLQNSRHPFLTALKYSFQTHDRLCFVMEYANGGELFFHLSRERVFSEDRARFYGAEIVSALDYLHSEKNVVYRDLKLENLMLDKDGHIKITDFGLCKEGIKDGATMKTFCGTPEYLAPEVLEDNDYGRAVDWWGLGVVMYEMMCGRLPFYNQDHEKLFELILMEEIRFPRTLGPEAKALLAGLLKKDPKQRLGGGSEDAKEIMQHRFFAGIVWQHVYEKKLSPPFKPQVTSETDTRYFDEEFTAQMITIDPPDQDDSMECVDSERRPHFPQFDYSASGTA
In words: Akt Kinase Assay.
Conditions: not given
The protocol:
The kinase assay uses His-Akt1 and a biotinylated peptide as substrate. The biotinylated peptides were immobilized on streptavidin-coated FLASH plates. After reaction, the 33P-phosphopeptide captured on the FLASH plates was measured with a TopCount Packard Instruments […] (Packard Instruments, Boston, MA).
Take `N[C@H](COc1cncc(-c2cc3c(Cl)n[nH]c3cn2)c1)Cc1cccc(C(F)(F)F)c1` [(2S)-1-{[5-(3-chloro-1H-pyrazolo[3,4-c]pyridin-5-yl)pyridin-3-yl]oxy}-3-[3-(trifluoromethyl)phenyl]propan-2-amine]: the IC50 came to 2.9 nM.

`Cc1n[nH]c2ccc(-c3cncc(OC[C@@H](N)Cc4cc(C(F)(F)F)ccc4F)c3)cc12` [5-{5-[(2S)-2-amino-3-[2-fluoro-5-(trifluoromethyl)phenyl]propoxy]pyridin-3-yl}-3-methyl-1H-indazole] returned an IC50 of 1.2 nM. On the same count and under the same terms, the figure for `Cc1n[nH]c2ccc(-c3cncc(OC[C@@H](N)Cc4ccc(OC(F)(F)F)cc4)c3)cc12` [(2S)-1-{[5-(3-methyl-1H-indazol-5-yl)pyridin-3-yl]oxy}-3-[4-(trifluoromethoxy)phenyl]propan-2-amine] is 20.3 nM; for `Cc1n[nH]c2ccc(-c3cncc(OC[C@@H](N)Cc4ccc(C(F)(F)F)c(F)c4)c3)cc12` [5-{5-[(2S)-2-amino-3-[3-fluoro-4-(trifluoromethyl)phenyl]propoxy]pyridin-3-yl}-3-methyl-1H-indazole] it is 3.1 nM.

As for `Cc1n[nH]c2ccc(-c3cncc(OC[C@@H](N)Cc4ccccc4Br)c3)cc12` [(2S)-1-(2-bromophenyl)-3-{[5-(3-methyl-1H-indazol-5-yl)pyridin-3-yl]oxy}propan-2-amine], the IC50 was 23 nM. The same measure, in the same setting: in the case of `Cc1n[nH]c2ccc(-c3cncc(OC[C@@H](N)Cc4ccc(C(F)(F)F)cc4)c3)cc12` [(2S)-1-{[5-(3-methyl-1H-indazol-5-yl)pyridin-3-yl]oxy}-3-[4-(trifluoromethyl)phenyl]propan-2-amine] it was 18 nM; in that of `Cc1n[nH]c2cnc(-c3cncc(OC[C@@H](N)Cc4cccc(C(F)(F)F)c4)c3)cc12` [3-[(2S)-2-amino-3-[3-(trifluoromethyl)phenyl]propoxy]-5-{3-methyl-1H-pyrazolo[3,4-c]pyridin-5-yl}pyridine], 0.6 nM; in that of `Cc1n[nH]c2ccc(-c3cncc(OC[C@@H](N)Cc4cccc(OCCN)c4)c3)cc12` [5-{5-[(2S)-2-amino-3-[3-(2-aminoethoxy)phenyl]propoxy]pyridin-3-yl}-3-methyl-1H-indazole], 47 nM.

In the case of `Cc1n[nH]c2ccc(-c3cncc(OC[C@@H](N)Cc4cccc(OCC5CCN(C)CC5)c4)c3)cc12` [5-{5-[(2S)-2-amino-3-{3-[(1-methylpiperidin-4-yl)methoxy]phenyl}propoxy]pyridin-3-yl}-3-methyl-1H-indazole], the IC50 was found to be 78 nM. This IC50 lies about 1.7-fold higher than the previous one. Still for that read-out and setting: in the case of `Cc1n[nH]c2ccc(-c3cncc(OC[C@@H](N)Cc4cccc(Cl)c4Cl)c3)cc12` [5-{5-[(2S)-2-amino-3-(2,3-dichlorophenyl)propoxy]pyridin-3-yl}-3-methyl-1H-indazole] it was 5.6 nM; in that of `Cc1n[nH]c2ccc(-c3cncc(OC[C@@H](N)Cc4cccc(Cl)c4)c3)cc12` [(2S)-1-(3-chlorophenyl)-3-{[5-(3-methyl-1H-indazol-5-yl)pyridin-3-yl]oxy}propan-2-amine], 5.9 nM.

`Cc1n[nH]c2ccc(-c3cncc(OC[C@@H](N)Cc4cc(F)cc(C(F)(F)F)c4)c3)cc12` [(2S)-1-[5-fluoro-3-(trifluoromethyl)phenyl]-3-{[5-(3-methyl-1H-indazol-5-yl)pyridin-3-yl]oxy}propan-2-amine] returned an IC50 of 13.3 nM.

`Cc1ccc(C[C@H](N)COc2cncc(-c3ccc4[nH]nc(C)c4c3)c2)cc1F` [5-{5-[(2S)-2-amino-3-(3-fluoro-4-methylphenyl)propoxy]pyridin-3-yl}-3-methyl-1H-indazole]: it took 2.4 nM to reach half-maximal inhibition (IC50). Against the preceding compound, the IC50 is about 5.5-fold lower. Take `Cc1n[nH]c2ccc(-c3cncc(OC[C@@H](N)Cc4ccc(Cl)c(Cl)c4)c3)cc12` [(2S)-1-(3,4-dichlorophenyl)-3-{[5-(3-methyl-1H-indazol-5-yl)pyridin-3-yl]oxy}propan-2-amine]: the IC50 was 1.8 nM. The IC50 values of the last two compounds are within 1.5-fold of each other. For `Cc1n[nH]c2ccc(-c3cncc(OC[C@@H](N)Cc4cccc(Br)c4)c3)cc12` [(2S)-1-(3-bromophenyl)-3-{[5-(3-methyl-1H-indazol-5-yl)pyridin-3-yl]oxy}propan-2-amine], the IC50 is 2.1 nM. Same read-out and setting: the figure for `Cc1n[nH]c2ccc(-c3cncc(OC[C@@H](N)Cc4ccc(F)c(Cl)c4)c3)cc12` [(2S)-1-(3-chloro-4-fluorophenyl)-3-{[5-(3-methyl-1H-indazol-5-yl)pyridin-3-yl]oxy}propan-2-amine] is 3.1 nM; for `COc1ccc(F)cc1C[C@H](N)COc1cncc(-c2ccc3[nH]nc(C)c3c2)c1` [(2S)-1-(5-fluoro-2-methoxyphenyl)-3-{[5-(3-methyl-1H-indazol-5-yl)pyridin-3-yl]oxy}propan-2-amine] it is 7.7 nM; for `Cc1cc(C[C@H](N)COc2cncc(-c3ccc4[nH]nc(C)c4c3)c2)ccc1F` [(2S)-1-(3-methyl-4-fluorophenyl)-3-{[5-(3-methyl-1H-indazol-5-yl)pyridin-3-yl]oxy}propan-2-amine] it is 11 nM. Same read-out and setting: in the case of `Cc1n[nH]c2ccc(-c3cncc(OC[C@@H](N)Cc4cc(C(F)(F)F)cc(C(F)(F)F)c4)c3)cc12` [5-{5-[(2S)-2-amino-3-[3,5-bis(trifluoromethyl)phenyl]propoxy]pyridin-3-yl}-3-methyl-1H-indazole] it was 57 nM; in that of `Cc1n[nH]c2ccc(-c3cncc(OC[C@@H](N)Cc4ccc(Br)cc4F)c3)cc12` [5-{5-[(2S)-2-amino-3-(4-bromo-2-fluorophenyl)propoxy]pyridin-3-yl}-3-methyl-1H-indazole], 10 nM; in that of `Cc1n[nH]c2ccc(-c3cncc(OC[C@@H](N)Cc4ccc5c(c4)OC(F)(F)C(F)(F)O5)c3)cc12` [5-{5-[(2S)-2-amino-3-(2,2,3,3-tetrafluoro-2,3-dihydro-1,4-benzodioxin-6-yl)propoxy]pyridin-3-yl}-3-methyl-1H-indazole], 13 nM. The same measure, in the same setting: the figure for `Cc1n[nH]c2ccc(-c3cncc(OC[C@@H](N)Cc4cccc(OCCN5CCOCC5)c4)c3)cc12` [4-(2-{3-[(2S)-2-amino-3-{[5-(3-methyl-1H-indazol-5-yl)pyridin-3-yl]oxy}propyl]phenoxy}ethyl)morpholine] is 751 nM; for `Cc1n[nH]c2ccc(-c3cncc(OC[C@@H](N)Cc4cccc(OCCC5CCNCC5)c4)c3)cc12` [5-{5-[(2S)-2-amino-3-{3-[2-(piperidin-4-yl)ethoxy]phenyl}propoxy]pyridin-3-yl}-3-methyl-1H-indazole] it is 290 nM; for `Cc1cc(F)ccc1C[C@H](N)COc1cncc(-c2ccc3[nH]nc(C)c3c2)c1` [5-{5-[(2S)-2-amino-3-(4-fluoro-2-methylphenyl)propoxy]pyridin-3-yl}-3-methyl-1H-indazole] it is 6 nM. Compound `Cc1n[nH]c2ccc(-c3cncc(OC[C@@H](N)Cc4cccc(OCC5CCNCC5)c4)c3)cc12` [5-{5-[(2S)-2-amino-3-[3-(piperidin-4-ylmethoxy)phenyl]propoxy]pyridin-3-yl}-3-methyl-1H-indazole] gave an IC50 of 6.8 nM. In turn, `N[C@H](COc1cncc(-c2cc3cn[nH]c3cn2)c1)Cc1cccc(C(F)(F)F)c1` [(2S)-1-{[5-(1H-pyrazolo[3,4-c]pyridin-5-yl)pyridin-3-yl]oxy}-3-[3-(trifluoromethyl)phenyl]propan-2-amine] returned an IC50 of 7.2 nM.

The compound `Cc1cc(C)c(C[C@H](N)COc2cncc(-c3ccc4[nH]nc(C)c4c3)c2)c(C)c1` [(2S)-1-(2,4,6-trimethylphenyl)-3-{[5-(3-methyl-1H-indazol-5-yl)pyridin-3-yl]oxy}propan-2-amine] registered an IC50 of 39 nM. This IC50 lies about 5.4-fold higher than the previous one. `Cc1n[nH]c2ccc(-c3cncc(OC[C@@H](N)Cc4ccc5c(c4)OCO5)c3)cc12` [5-{5-[(2S)-2-amino-3-(2H-1,3-benzodioxol-5-yl)propoxy]pyridin-3-yl}-3-methyl-1H-indazole] returned an IC50 of 42 nM.

Compound `Cc1n[nH]c2ccc(-c3cncc(OC[C@@H](N)Cc4cc(Cl)cc(Cl)c4)c3)cc12` [(2S)-1-(3,5-dichlorophenyl)-3-{[5-(3-methyl-1H-indazol-5-yl)pyridin-3-yl]oxy}propan-2-amine] returned an IC50 of 20.7 nM. Turning to `Cc1cc(C[C@H](N)COc2cncc(-c3ccc4[nH]nc(C)c4c3)c2)ccc1Br` [5-{5-[(2S)-2-amino-3-(4-bromo-3-methylphenyl)propoxy]pyridin-3-yl}-3-methyl-1H-indazole], the half-maximal inhibitory concentration (IC50) stood at 2.5 nM.

`Cc1n[nH]c2ccc(-c3cncc(OC[C@@H](N)Cc4cccc5c4OC(F)(F)O5)c3)cc12` [5-{5-[(2S)-2-amino-3-(2,2-difluoro-2H-1,3-benzodioxol-4-yl)propoxy]pyridin-3-yl}-3-methyl-1H-indazole] displayed an IC50 of 14 nM.

The test is the same for the next values; noted with them: pH 7.5; 22 °C.
Compound `Cc1n[nH]c2ccc(-c3cncc(OC[C@@H](N)Cc4cccc(F)c4)c3)cc12` [5-{5-[(2S)-2-amino-3-(3-fluorophenyl)propoxy]pyridin-3-yl}-3-methyl-1H-indazole] showed an IC50 of 8.4 nM. The same measure, in the same setting: the figure for `Cc1n[nH]c2ccc(-c3cncc(OC[C@@H](N)Cc4ccc(F)cc4F)c3)cc12` [(2S)-1-(2,4-difluorophenyl)-3-{[5-(3-methyl-1H-indazol-5-yl)pyridin-3-yl]oxy}propan-2-amine] is 21 nM; for `Cc1n[nH]c2ccc(-c3cncc(OC[C@@H](N)Cc4cccc(F)c4F)c3)cc12` [5-{5-[(2S)-2-amino-3-(2,3-difluorophenyl)propoxy]pyridin-3-yl}-3-methyl-1H-indazole] it is 8.5 nM; for `N[C@H](COc1cncc(-c2ccc3c(c2)CC(=O)N3)c1)Cc1ccccc1` [5-(5-{[(2S)-2-amino-3-phenylpropyl]oxy}pyridin-3-yl)-1,3-dihydro-2H-indol-2-one] it is 2650 nM. The same measure, in the same setting: the figure for `Cc1n[nH]c2ccc(-c3cncc(OC[C@@H](N)Cc4c(F)cc(F)cc4F)c3)cc12` [(2S)-1-(2,4,6-trifluorophenyl)-3-{[5-(3-methyl-1H-indazol-5-yl)pyridin-3-yl]oxy}propan-2-amine] is 31 nM.
